Entries after “also recorded” stand apart in the source; their conditions may differ.
Experiments:
[1] = Formation of lipid hydroperoxides in antioxidant-treated crackers during storage; conditions: for course of lipid hydroperoxide formation after the lag phase (in words) / storage day at which lipid hydroperoxide concentration began to increase (end of lag phase): FIG. 1; for storage day at which lipid hydroperoxide concentration began to increase (end of lag phase): autoxidized at 55° C. in the absence of light; for order of induction periods for lipid hydroperoxides: time to reach threshold [Hydroperoxides]=0.1 mM/g cracker, FIG. 3A
Procedure: (§1) Based on the concentrations of the individual AR stock solutions previously determined, an appropriate volume, containing 153 μmol of the respective individual AR homologue, was measured into plastic centrifuge tubes to prepare individual AR homologue treatments. A treatment containing a mixture of the individual AR homologues, at their natural abundance in rye bran, was prepared by combining 25.3% of C17:0, 32.0% of C19:0, 22.6% of C21:0, 12.5% of C23:0, and 7.6% of C25:0. The same procedure was carried out with 10 mM stock solutions of orcinol, α-tocopherol, and butylated hydroxytoluene (BHT) and all treatments were dried under a stream of nitrogen. Ethanol (1.0 mL) was added to the dried treatments (and a control treatment containing no antioxidant) and mixed with 10 g of melted ISO. The antioxidant activity of each treatment was tested at 153 μmol because this corresponds to 500 ppm of C21:0 in the final cracker which is a typical antioxidant concentration used in bakery applications.
(§2) Antioxidant-treated ISO was melted at 90° C. for 10 minutes and mixed in a stand mixer (KSM95, KitchenAid, Benton Harbor, Mich., U.S.) using a beater blade for 1 minute (speed 2). Sifted flour, salt, and baking soda were added and mixed using a beater blade for 1 minute (speed 2). Water was added and mixed using a dough hook for 1 minute (speed 2). The additional flour was sprinkled onto the surface of a baking mat and incorporated into the dough by kneading by hand (30 folds). The dough was flattened by passing it through a pasta roller (KPSA, KitchenAid, Benton Harbor, Mich., U.S.) twice (thickness setting 2). The sheeted dough was cut into 2.5 cm×2.5 cm crackers and baked on an ungreased baking sheet for 9 minutes at 163° C. (FD 53-UL, Binder, Tuttlingen, Germany). After cooling to room temperature, crackers were coarsely crumbled using a mortar and pestle and weighed (0.5 g) into 10 mL amber glass headspace vials (Supelco Analytical, Bellefonte, Pa., U.S.), sealed with stainless steel screw caps with PTFE/silicone septa (Supelco Analytical, Bellefonte, Pa., U.S.), and allowed to autoxidize at 55° C. in the absence of light for up to 160 days. Crackers were analyzed for lipid hydroperoxides, headspace hexanal, and AR loss every 5 days for day 0-50, every 10 days for day 51-100, and every 20 days for the remainder of the storage time.
Lipid hydroperoxides were determined according to the method described by Shantha & Decker (1994) with slight modifications. Cracker samples (0.1 g) were finely ground using a mortar and pestle and mixed with 5.0 mL chloroform/methanol (2:1 (v/v)) by vortexing (10 seconds, 3 times). The hydroperoxide-containing lipid fraction was extracted and isolated by centrifugation at 2500×g for 10 minutes (Centrifuge 5702, A-4-38 Rotor, Eppendorf, Hamburg, Germany). To this extract (1.0 mL), 16.7 μL of an iron chloride solution (prepared by mixing 50 mL 66 mM FeSO4 in water with 50 mL 38 mM BaCl2 in 0.4 N HCl) was added followed by 16.7 μL of ammonium thiocyanate (3.9 M in water), and allowed to react at room temperature for 20 minutes. The absorbance of the samples was measured at 500 nm (GENESYS 180 UV-Vis Spectrophotometer, Thermo Fisher Scientific, Waltham, Mass., U.S.) and lipid hydroperoxides were quantified based on a standard curve prepared using cumene hydroperoxide.
Individual AR homologues (C17:0, C19:0, C21:0, C23:0, C25:0) were added separately and as a mixture (AR Mix) to ISO and subsequently incorporated into the cracker samples. The antioxidant activities of the AR homologues in crackers were compared to orcinol (a water-soluble AR), conventional antioxidants (i.e., α-tocopherol, BHT), and a control treatment (i.e., no added antioxidant). The crackers were allowed to autoxidize in the absence of light and primary (i.e., lipid hydroperoxides) and secondary products (i.e., headspace hexanal) of lipid oxidation were measured as a function of time.

[2] = Antioxidant activity in the low-moisture model cracker system (overall lipid oxidation study); conditions: 153 μmol antioxidant
Procedure: Based on the concentrations of the individual AR stock solutions previously determined, an appropriate volume, containing 153 μmol of the respective individual AR homologue, was measured into plastic centrifuge tubes to prepare individual AR homologue treatments. […] The same procedure was carried out with 10 mM stock solutions of orcinol, α-tocopherol, and butylated hydroxytoluene (BHT) and all treatments were dried under a stream of nitrogen. Ethanol (1.0 mL) was added to the dried treatments (and a control treatment containing no antioxidant) and mixed with 10 g of melted ISO. […] Antioxidant-treated ISO was melted at 90° C. for 10 minutes and mixed in a stand mixer (KSM95, KitchenAid, Benton Harbor, Mich., U.S.) using a beater blade for 1 minute (speed 2). […] flour, salt, and baking soda were added and mixed using a beater blade for 1 minute (speed 2). Water was added and mixed using a dough hook for 1 minute (speed 2). The additional flour was sprinkled onto the surface of a baking mat and incorporated into the dough by kneading by hand (30 folds). The dough was flattened by passing it through a pasta roller (KPSA, KitchenAid, Benton Harbor, Mich., U.S.) twice (thickness setting 2). The sheeted dough was cut into 2.5 cm×2.5 cm crackers and baked on an ungreased baking sheet for 9 minutes at 163° C. (FD 53-UL, Binder, Tuttlingen, Germany). […] Individual AR homologues (C17:0, C19:0, C21:0, C23:0, C25:0) were added separately and as a mixture (AR Mix) to ISO and subsequently incorporated into the cracker samples. The antioxidant activities of the AR homologues in crackers were compared to orcinol (a water-soluble AR), conventional antioxidants (i.e., α-tocopherol, BHT), and a control treatment (i.e., no added antioxidant). The crackers were allowed to autoxidize in the absence of light and primary (i.e., lipid hydroperoxides) and secondary products (i.e., headspace hexanal) of lipid oxidation were measured as a function of time.

[3] = oxygen radical absorbance capacity assay, earlier work of the Inventors; cited from earlier work
[4] = Formation of headspace hexanal in antioxidant-treated crackers during storage; conditions: for activity concluded from headspace hexanal formation / storage day at which headspace hexanal began to increase (end of lag phase): 153 μmol antioxidant in crackers; for activity concluded from headspace hexanal formation: 55° C., compared to control crackers; for storage day at which headspace hexanal began to increase (end of lag phase): autoxidized at 55° C. in the absence of light, FIG. 2; for order of induction periods for headspace hexanal: time to reach threshold [Hexanal]=1.0 mM/g cracker, FIG. 3B
Procedure: as §1, §2
Cracker samples were prepared for GC-MS analysis by adding 10 μL of 100 mg/L 2-methypentanal (internal standard) in methanol directly through the capped headspace vial's septum. The GC system consisted of a 7890B gas chromatograph (Agilent, Santa Clara, Calif., U.S.) with sample introduction by means of an autosampler (Robotic MultiPurpose Sampler, Gerstel, Mülheim, Germany). Samples were equilibrated for 10 minutes at 55° C. with continuous shaking. A 50/30 μm divinylbenzene/carboxen/polydimethylsiloxane (DVB/CAR/PDMS) (1 cm) (Supelco Analytical, Bellefonte, Pa., U.S.) solid phase microextraction (SPME) fiber was exposed to the sample headspace for 2 minutes at 55° C. The SPME fiber was desorbed for 6 minutes at 250° C. in the injection port equipped with a SPME inlet liner at a split ratio of 10:1. Volatile aldehydes were separated on a Rtx-WAX capillary column (30 m, 0.25 mm i.d., 0.25 μm film thickness) (Restek, Bellefonte, Pa., U.S.). An oven program was followed to separate the different volatile aldehydes at a constant helium carrier gas flow rate of 1.22 mL/min. The oven program was as follows: hold at 40° C. for 1 minute; ramp at 10° C./min to 75° C.; ramp at 100° C./min to 250° C.; hold at 250° C. for 1.75 minutes. Detection and quantification of hexanal and 2-methylpentanal was achieved using a single quadrupole mass spectrometer (5977B, Agilent, Santa Clara, Calif., U.S.) coupled to the GC. The MS transfer line, quadrupole, and detector temperatures were set to 250° C., 230° C., 150° C., respectively. Mass spectra were collected in electron impact mode.

[5] = literature, same low-moisture model cracker system; cited from earlier work
[6] = 153 μmol antioxidant in crackers, 55° C.
[7] = 153 μmol antioxidant in crackers

Structure (SMILES): Cc1cc(O)cc(O)c1 [orcinol]
- course of lipid hydroperoxide formation after the lag phase (in words) [1, 6]: oxidizing most rapidly
- storage day at which lipid hydroperoxide concentration began to increase (end of lag phase) [1, 7]: 25 days
- order of induction periods for lipid hydroperoxides [1]: AR Mix≈C23:0>C25:0>(C21:0≈C19:0)>(C19:0≈BHT)>(BHT≈orcinol)>(orcinol≈C17:0)>control>>α-tocopherol
- antioxidant activity in the low-moisture model cracker system (in words) [2]: weak to no antioxidant activity
- radical scavenging capacity [3]: strongest antiradical activity
- activity concluded from headspace hexanal formation [4]: neither prooxidant or antioxidant activity
- storage day at which headspace hexanal began to increase (end of lag phase) [4]: > 35 days
- order of induction periods for headspace hexanal [4]: C23:0>BHT>C25:0 AR Mix>C21:0>C19:0≈C17:0>control≈orcinol>>α-tocopherol

Structure (SMILES): O=C(/C=C/c1ccc(O)c(O)c1)O[C@H](Cc1ccc(O)c(O)c1)C(=O)O [rosmarinic acid]
- antioxidant activity against formation of lipid hydroperoxides and hexanal [5]: weak antioxidant and prooxidant activity

Structure (SMILES): CCCCCCCCCCCCCCCCCCCCCCCc1cc(O)cc(O)c1 [C23:0]
- course of lipid hydroperoxide formation after the lag phase (in words) [1, 6]: slow, steady increase
- order of induction periods for lipid hydroperoxides [1]: AR Mix≈C23:0>C25:0>(C21:0≈C19:0)>(C19:0≈BHT)>(BHT≈orcinol)>(orcinol≈C17:0)>control>>α-tocopherol
- antioxidant activity in the low-moisture model cracker system (in words) [2]: optimum activity; also recorded: more effective than BHT
- storage day at which headspace hexanal began to increase (end of lag phase) [4]: still in the lag phase of lipid oxidation at the conclusion of the study
- order of induction periods for headspace hexanal [4]: C23:0>BHT>C25:0 AR Mix>C21:0>C19:0≈C17:0>control≈orcinol>>α-tocopherol

Structure (SMILES): CCCCCCCCCCCCCCCCCc1cc(O)cc(O)c1 [C17:0]
- storage day at which lipid hydroperoxide concentration began to increase (end of lag phase) [1, 7]: 25 days
- order of induction periods for lipid hydroperoxides [1]: AR Mix≈C23:0>C25:0>(C21:0≈C19:0)>(C19:0≈BHT)>(BHT≈orcinol)>(orcinol≈C17:0)>control>>α-tocopherol
- storage day at which headspace hexanal began to increase (end of lag phase) [4]: 45 days
- order of induction periods for headspace hexanal [4]: C23:0>BHT>C25:0 AR Mix>C21:0>C19:0≈C17:0>control≈orcinol>>α-tocopherol

Structure (SMILES): CCCCCCCCCCCCCCCCCCCc1cc(O)cc(O)c1 [C19:0]
- storage day at which lipid hydroperoxide concentration began to increase (end of lag phase) [1, 7]: 25 days
- order of induction periods for lipid hydroperoxides [1]: AR Mix≈C23:0>C25:0>(C21:0≈C19:0)>(C19:0≈BHT)>(BHT≈orcinol)>(orcinol≈C17:0)>control>>α-tocopherol
- storage day at which headspace hexanal began to increase (end of lag phase) [4]: 50 days
- order of induction periods for headspace hexanal [4]: C23:0>BHT>C25:0 AR Mix>C21:0>C19:0≈C17:0>control≈orcinol>>α-tocopherol

Structure (SMILES): CCCCCCCCCCCCCCCCCCCCCc1cc(O)cc(O)c1 [C21:0]
- storage day at which lipid hydroperoxide concentration began to increase (end of lag phase) [1, 7]: 25 days
- order of induction periods for lipid hydroperoxides [1]: AR Mix≈C23:0>C25:0>(C21:0≈C19:0)>(C19:0≈BHT)>(BHT≈orcinol)>(orcinol≈C17:0)>control>>α-tocopherol
- storage day at which headspace hexanal began to increase (end of lag phase) [4]: 70 days
- order of induction periods for headspace hexanal [4]: C23:0>BHT>C25:0 AR Mix>C21:0>C19:0≈C17:0>control≈orcinol>>α-tocopherol

Structure (SMILES): Cc1cc(C(C)(C)C)c(O)c(C(C)(C)C)c1 [BHT, butylated hydroxytoluene]
- course of lipid hydroperoxide formation after the lag phase (in words) [1, 6]: slow, steady increase
- storage day at which lipid hydroperoxide concentration began to increase (end of lag phase) [1, 7]: 25 days
- order of induction periods for lipid hydroperoxides [1]: AR Mix≈C23:0>C25:0>(C21:0≈C19:0)>(C19:0≈BHT)>(BHT≈orcinol)>(orcinol≈C17:0)>control>>α-tocopherol
- antioxidant activity in the low-moisture model cracker system (in words) [2]: strong antioxidant activity
- order of induction periods for headspace hexanal [4]: C23:0>BHT>C25:0 AR Mix>C21:0>C19:0≈C17:0>control≈orcinol>>α-tocopherol

Structure (SMILES): CCCCCCCCCCCCCCCCCCCCOC(=O)C(Cc1ccc(O)c(O)c1)OC(=O)C=Cc1ccc(O)c(O)c1 (stereo not shown) [eicosyl ester]
- antioxidant activity against formation of lipid hydroperoxides and hexanal [5]: stronger antioxidant activity than rosmarinic acid and the dodecyl ester

Structure (SMILES): Cc1c(C)c2c(c(C)c1O)CC[C@@](C)(CCC[C@H](C)CCC[C@H](C)CCCC(C)C)O2 [α-tocopherol]
- activity concluded from lipid hydroperoxide formation ([1]; 153 μmol antioxidant in crackers, 55° C., compared to control crackers): prooxidant activity
- storage day at which lipid hydroperoxide concentration began to increase (end of lag phase) [1, 7]: immediately upon storage
- order of induction periods for lipid hydroperoxides [1]: AR Mix≈C23:0>C25:0>(C21:0≈C19:0)>(C19:0≈BHT)>(BHT≈orcinol)>(orcinol≈C17:0)>control>>α-tocopherol
- antioxidant activity in the low-moisture model cracker system (in words) [2]: strong prooxidant activity
- activity concluded from headspace hexanal formation [4]: prooxidant behavior
- storage day at which headspace hexanal began to increase (end of lag phase) [4]: 5 days
- order of induction periods for headspace hexanal [4]: C23:0>BHT>C25:0 AR Mix>C21:0>C19:0≈C17:0>control≈orcinol>>α-tocopherol

Structure (SMILES): CCCCCCCCCCCCCCCCCCCCCCCCCc1cc(O)cc(O)c1 [C25:0]
- course of lipid hydroperoxide formation after the lag phase (in words) [1, 6]: slow, steady increase
- order of induction periods for lipid hydroperoxides [1]: AR Mix≈C23:0>C25:0>(C21:0≈C19:0)>(C19:0≈BHT)>(BHT≈orcinol)>(orcinol≈C17:0)>control>>α-tocopherol
- antioxidant activity in the low-moisture model cracker system (in words) [2]: more effective than BHT
- order of induction periods for headspace hexanal [4]: C23:0>BHT>C25:0 AR Mix>C21:0>C19:0≈C17:0>control≈orcinol>>α-tocopherol

— patent US20230079687A1, “ALKYLRESORCINOL HOMOLOGUES AS ANTIOXIDANTS” (The Penn State Research Foundation, priority 2021, published 2023)
